Values quoted from earlier work, collected in patent publication US6727227B1, “Tetrapetide revealing geroprotective effect, pharmacological substance on its basis, and the method of its application” (Obschestvo S Ogranichennoi Otvetstven-Nostiju “Klinika …, priority 2002, dated 2004).

Assays:
[1] = tested on: experimental animals; settings: cited from earlier work
[2] = tested on: LAF1 strain in mice; settings: LAF1 mice with accelerated ageing, food-supplement; cited from earlier work
[3] = tested on: mice of SAM strain; settings: diet with increased amount for 7 months; cited from earlier work
[4] = tested on: mice of C3H strain; settings: addition to food; cited from earlier work
[5] = tested on: mice; settings: cited from earlier work
[6] = tested on: Drosophila melanogaster (HEM strain); settings: cited from earlier work

For `CCc1nc(C)ccc1O.Cl` [2-ethyl-6-methyl-3-oxypyridine chlorhydrate], the Life span [1] is given as “An increase in the life span”.
For `NCCS` [2-mercaptoethanolamine], the Life span [1] is given as “insignificant extension in the life span”.
For `Oc1cccnc1` [3-hydroxypyridine], the Life span [1] is listed as “insignificant extension in the life span”.
In the case of `Cc1cc(C(C)(C)C)c(O)c(C(C)(C)C)c1` [Ionol, 2.6-di-tert-butyl4-methylphenol], the Life span [2] is listed as “promoted an increase in the life span”.
In the case of `NCCC(=O)N[C@@H](Cc1cnc[nH]1)C(=O)O` [carnosine], the Death rate [3] is listed as “death rat decreased”.
In the case of `CN(C)CCOC(=O)COc1ccc(Cl)cc1` [centrophenoxyn], the Life span [1] is listed as “insignificant extension in the life span”.
For `N[C@@H](CS)C(=O)O` [cystein], the Life span [1] is listed as “insignificant extension in the life span”.
For `CCOc1ccc2c(c1)C(C)=CC(C)(C)N2` [ethoxyhin], the Life span [4] is given as “extended the life span”.
For `O=C(O)[C@H](O)[C@@H](O)[C@H](O)[C@H](O)CO` [gluconic acid, lactic and gluconic acids], the Life span [1] is given as “insignificant extension in the life span”.
For `N[C@@H](CCC(=O)N[C@@H](CS)C(=O)NCC(=O)O)C(=O)O` [glutathione], the Life span [1] is listed as “insignificant extension in the life span”.
For `COc1ccc2[nH]cc(CCNC(C)=O)c2c1` [melatonin], the Average life span [5] is given as “A minor increase in the average life span” and the Geroprotective effect [6] is given as “failed to produce a geroprotective effect”.
For `O=C1O[C@H]([C@@H](O)CO)C(O)=C1O` [vitamin C], the Life span [1] is given as “increase in the life span”.
In the case of butyl hydroxytoluol, the Life span [1] is given as “insignificant extension in the life span”.
In the case of vitamin A, the Life span [1] is listed as “increase in the life span”.
For vitamin E, the Life span [1] is listed as “increase in the life span”.
